The term EC50 denotes the concentration that produces a half-maximal response. A low value points to higher potency in that assay.

For the experiment, the system named is Hepatitis C replicon. Kind of experiment: HCV replicon assay (NPT ELISA readout) in Huh-7 replicon-containing cells. In kind it is cell-based, Hepatitis C virus. The following applies: Hepatitis C virus, 72 h; HCV replicon in Huh-7 cells, three days incubation. A digest of the protocol:
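Huh-7 cells carrying a neo-containing HCV subgenomic replicon (NS3-NS5B) were plated overnight, then exposed to compound (generally 6 concentrations, 10 to 0.03 μM) for three days at 37 °C. Replication was read as NPT level by captured ELISA; interferon alpha served as positive control.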
Background: In antiviral work, replicon cells carry a viral genome segment that copies itself.
`COc1ccc2c(O[C@@H]3C[C@H]4C(=O)N[C@]5(C(=O)NS(=O)(=O)C6CC6)C[C@H]5/C=C\CCCCC[C@H](CC(=O)N5CC[C@@H](C(C)(C)N)C5)C(=O)N4C3)cc(-c3ccccc3)nc2c1` [Compound 107, (2R,6R,14aR,16aS, Z)-6-(2-((R)-3-(2-aminopropan-2-yl)pyrrolidin-1-yl)-2-oxoethyl)-N-(cyclopropylsulfonyl)-2-(7-methoxy-2-phenylquinolin-4-yloxy)-5,16-dioxo-1,2,3,5,6,7,8,9,10,11, 13a,14,14a,15,16,16a-hexadecahydrocyclopropa [e]pyrrolo[1,2-a][1,4] diazacyclopentadecine-14a-carboxamide] registered an EC50 of under 1000 nM. Turning to `COc1ccc2c(O[C@@H]3C[C@H]4C(=O)N[C@]5(C(=O)NS(=O)(=O)C6CC6)C[C@H]5/C=C\CCCCC[C@H](CC(=O)N5CCCC(F)(F)C5)C(=O)N4C3)cc(-c3cccnc3)nc2c1C` [Compound 129, (2R,6R,14aR,16aS,Z)-N-(cyclopropylsulfonyl)-6-(2-(3,3-difluoropiperidin-1-yl)-2-oxoethyl)-2-(7-methoxy-8-methyl-2-(pyridin-3-yl)quinolin-4-yloxy)-5,16-dioxo-1,2,3,5,6,7,8,9,10,11, 13a,14,14a,15,16,16a-hexadecahydrocyclopropa [e]pyrrolo[1,2-a][1,4] diazacyclopentadecine-14a-carboxamide], the EC50 is over 10000 nM.

`COc1ccc2c(O[C@@H]3C[C@H]4C(=O)N[C@]5(C(=O)NS(=O)(=O)C6CC6)C[C@H]5/C=C\CCCCC[C@H](CC(=O)N5CCCCC5)C(=O)N4C3)cc(-c3ccccc3)nc2c1` [Compound 48, (2R,6R,13aS, 14aR,16aS,Z)-N-(cyclopropylsulfonyl)-2-(7-methoxy-2-phenylquinolin-4-yloxy)-5,16-dioxo-6-(2-oxo-2-(piperidin-1-yl)ethyl)-1,2,3,5,6,7,8,9,10,11, 13a,14,14a,15,16,16a-hexadecahydrocyclopropa [e]pyrrolo[1,2-a][1,4] diazacyclopentadecine-14a-carboxamide] gave a concentration for a half-maximal effect (EC50) of 1000 to 10000 nM. In turn, `COc1ccc2c(O[C@@H]3C[C@H]4C(=O)N[C@]5(C(=O)NS(=O)(=O)C6CC6)C[C@H]5/C=C\CCCCC[C@H](CC(=O)N5CCOC(C)C5)C(=O)N4C3)cc(-c3ccccc3)nc2c1` (stereo partly drawn) [Compound 75, (2R,6R,13aS, 14aR,16aS,Z)-N-(cyclopropylsulfonyl)-2-(7-methoxy-2-phenylquinolin-4-yloxy)-6-(2-(2-methylmorpholino)-2-oxoethyl)-5,16-dioxo-1,2,3,5,6,7,8,9,10,11, 13a,14,14a,15,16,16a-hexadecahydrocyclopropa [e]pyrrolo[1,2-a][1,4] diazacyclopentadecine-14a-carboxamide] had an EC50 of under 1000 nM. As for `COc1ccc2c(O[C@@H]3C[C@H]4C(=O)N[C@]5(C(=O)NS(=O)(=O)C6CC6)C[C@H]5/C=C\CCCCC[C@H](CC(=O)N5CC[C@H](O)C5)C(=O)N4C3)cc(-c3ccccc3)nc2c1` [Compound 108, (2R,6R,14aR,16aS,Z)-N-(cyclopropylsulfonyl)-6-(2-((S)-3-hydroxypyrrolidin-1-yl)-2-oxoethyl)-2-(7-methoxy-2-phenylquinolin-4-yloxy)-5,16-dioxo-1,2,3,5,6,7,8,9,10,11, 13a,14,14a,15,16,16a-hexadecahydrocyclopropa [e]pyrrolo[1,2-a][1,4] diazacyclopentadecine-14a-carboxamide], the EC50 was under 1000 nM.

In the case of `COc1ccc2c(O[C@@H]3C[C@H]4C(=O)N[C@]5(C(=O)NS(=O)(=O)C6CC6)C[C@H]5/C=C\CCCCC[C@H](CC(=O)N5CCCCC5)C(=O)N4C3)nccc2c1Cl` [Compound 122, (2R,6R,13aS,16aS, Z)-2-(5-chloro-6-methoxylsoquinolin-1-yloxy)-N-(cyclopropylsulfonyl)-5, 16-dioxo-6-(2-oxo-2-(piperidin-1-yl)ethyl)-1,2,3,5,6,7,8,9,10,11, 13a,14,14a,15,16,16a-hexadecahydrocyclopropa [e]pyrrolo[1,2-a][1,4] diazacyclopentadecine-14a-carboxamide], the EC50 was under 1000 nM. The compound `COc1ccc2c(O[C@@H]3C[C@H]4C(=O)N[C@@](C)(C(=O)NS(=O)(=O)C5CC5)C/C=C\CCCCC[C@H](CC(=O)N5CCCCC5)C(=O)N4C3)cc(-c3ccccc3)nc2c1` [Compound 65, (3R,12R,16R,17aS,Z)-N-(cyclopropylsulfonyl)-16-(7-methoxy-2-phenylquinolin-4-yloxy)-3-methyl-1,13-dioxo-12-(2-oxo-2-(piperidin-1-yl)ethyl)-2,3,4,7,8,9,10, 11,12,13,15,16,17,17a-tetradecahydro-1H-pyrrolo[1,2-a][1,4] diazacyclopentadecine-3-carboxamide] gave an EC50 of 1000 to 10000 nM. As to `COc1ccc2c(O[C@@H]3C[C@H]4C(=O)N[C@]5(C(=O)NS(=O)(=O)C6CC6)C[C@H]5/C=C\CCCCC[C@H](CC(=O)N5CCN(C(=O)OC(C)(C)C)CC5)C(=O)N4C3)cc(-c3ccccc3)nc2c1` [Compound 67, tert-butyl 4-(2-((2R,6R, 13aS,14aR,16aS,Z)-14a-(cyclopropylsulfonyl-carbamoyl)-2-(7-methoxy-2-phenylquinolin-4-yloxy)-5,16-dioxo-1,2,3,5,6,7,8,9,10,11, 13a,14,14a,15,16,16a-hexadecahydrocyclopropa [e]pyrrolo[1,2-a][1,4]diazacyclopentadecin-6-yl)acetyl)piperazine-1-carboxylate], the EC50 is under 1000 nM. In turn, `COc1ccc2c(O[C@@H]3C[C@H]4C(=O)N[C@]5(C(=O)NS(=O)(=O)C6CC6)C[C@H]5/C=C\CCCCC[C@H](CC(=O)N5CC[C@@H](CN)C5)C(=O)N4C3)cc(-c3ccccc3)nc2c1` [Compound 105, (2R,6R,14aR,16aS, Z)-6-(2-((S)-3-(aminomethyl)pyrrolidin-1-yl)-2-oxoethyl)-N-(cyclopropylsulfonyl)-2-(7-methoxy-2-phenylquinolin-4-yloxy)-5,16-dioxo-1,2,3,5,6,7,8,9,10,11, 13a,14,14a,15,16,16a-hexadecahydrocyclopropa [e]pyrrolo[1,2-a][1,4] diazacyclopentadecine-14a-carboxamide] registered an EC50 of under 1000 nM.

With `COc1ccc2c(O[C@@H]3C[C@H]4C(=O)N[C@]5(C(=O)NS(=O)(=O)C6CC6)C[C@H]5/C=C\CCCCC[C@H](CC(=O)N5CCC(F)CC5)C(=O)N4C3)cc(-c3ccccc3)nc2c1` [Compound 70, (2R,6R,13aS, 14aR,16aS,Z)-N-(cyclopropylsulfonyl)-6-(2-(4-fluoropiperidin-1-yl)-2-oxoethyl)-2-(7-methoxy-2-phenylquinolin-4-yloxy)-5,16-dioxo-1,2,3,5,6,7,8,9,10,11, 13a,14,14a,15,16,16a-hexadecahydrocyclopropa [e]pyrrolo[1,2-a][1,4] diazacyclopentadecine-14a-carboxamide], the EC50 was under 1000 nM. With `CCOC(=O)C12CC1/C=C\CCCCC[C@@H](CC(=O)N1CCCCC1)C(=O)N1C[C@H](Oc3cc(-c4ccccc4)nc4cc(OC)ccc34)C[C@H]1C(=O)N2` (stereo partly drawn) [Compound 42, (2R,6S,16aS,Z)-ethyl 2-(7-methoxy-2-phenylquinolin-4-yloxy)-5,16-dioxo-6-(2-oxo-2-(piperidin-1-yl)ethyl)-1,2,3,5,6,7,8,9,10,11, 13a,14,14a,15,16,16a-hexadecahydrocyclopropa [e]pyrrolo[1,2-a][1,4] diazacyclopentadecine-14a-carboxylate] the figure was 1000 to 10000 nM.

For `CCOC(=O)[C@@]12C[C@H]1/C=C\CCCCC[C@H](CC(=O)N1CCCCC1)C(=O)N1C[C@H](Oc3cc(-c4ccccc4)nc4cc(OC)ccc34)C[C@H]1C(=O)N2` [Compound 45, (2R,6R,13aS,14aR, 16aS,Z)-ethyl 2-(7-methoxy-2-phenylquinolin-4-yloxy)-5,16-dioxo-6-(2-oxo-2-(piperidin-1-yl)ethyl)-1,2,3,5,6,7,8,9,10,11, 13a,14,14a,15,16,16a-hexadecahydrocyclopropa [e]pyrrolo[1,2-a][1,4] diazacyclopentadecine-14a-carboxylate], the EC50 is over 10000 nM. With `COc1ccc2c(O[C@@H]3C[C@H]4C(=O)N[C@]5(C(=O)NS(=O)(=O)C6CC6)C[C@H]5/C=C\CCCCC[C@H](CC(=O)NC(C)(C)C)C(=O)N4C3)cc(-c3ccccc3)nc2c1` [Compound 72, (2R,6R,13aS,14aR, 16aS,Z)-6-(2-(tert-butylamino)-2-oxoethyl)-N-(cyclopropylsulfonyl)-2-(7-methoxy-2-phenylquinolin-4-yloxy)-5,16-dioxo-1,2,3,5,6,7,8,9,10,11, 13a,14,14a,15,16,16a-hexadecahydrocyclopropa [e]pyrrolo[1,2-a][1,4] diazacyclopentadecine-14a-carboxamide] the figure was under 1000 nM; with `COc1ccc2c(O[C@@H]3C[C@H]4C(=O)N[C@]5(C(=O)NS(=O)(=O)C6CC6)C[C@H]5/C=C\CCCCC[C@H](CC(=O)OC(C)(C)C)C(=O)N4C3)cc(-c3ccccn3)nc2c1Cl` [Compound 88, tert-butyl 2-((2R,6R,14aR, 16aS,Z)-2-(8-chloro-7-methoxy-2-(pyridin-2-yl)quinolin-4-yloxy)-14a-(cyclopropylsulfonyl-carbamoyl)-5,16-dioxo-1,2,3,5,6,7,8,9,10,11, 13a,14,14a,15,16,16a-hexadecahydrocyclopropa [e]pyrrolo[1,2-a][1,4]diazacyclopentadecin-6-yl)acetate], under 1000 nM.

Compound `COc1ccc2c(O[C@@H]3C[C@H]4C(=O)N[C@]5(C(=O)NS(=O)(=O)C6CC6)C[C@H]5/C=C\CCCCC[C@H](CC(=O)N[C@@H]5CCNC5)C(=O)N4C3)cc(-c3ccccc3)nc2c1` [Compound 109, (2R,6R,14aR,16aS,Z)-N-(cyclopropylsulfonyl)-2-(7-methoxy-2-phenylquinolin-4-yloxy)-5,16-dioxo-6-(2-oxo-2-((R)-pyrrolidin-3-ylamino)ethyl)-1,2,3,5,6,7,8,9,10,11, 13a,14,14a,15,16,16a-hexadecahydrocyclopropa [e]pyrrolo[1,2-a][1,4] diazacyclopentadecine-14a-carboxamide] displayed an EC50 of under 1000 nM.

Values taken from patent publication US8697641B2, “4-amino-4-oxobutanoyl peptide cyclic analogues, inhibitors of viral replication” (Achillion Pharmaceuticals, Inc., priority 2008, dated 2014).
